{
  "source": "ChEMBL document CHEMBL1122718",
  "about": "“Benzylamines: synthesis and evaluation of antimycobacterial properties” (1984)",
  "assay_type_in_all_cases": "functional",
  "key": {"[1]": {"system": "Mycobacterium tuberculosis", "test": "Compound was evaluated for the synergistic effect in combination with ethambutol for the inhibition of Mycobacterium tuberculosis H 37 Ra, using Lowenstein-Jensen medium (solid)"}, "[2]": {"system": "Mycobacterium tuberculosis", "test": "Fractional inhibitory concentration (FIC) was determined for the compound in combination of Aminosalicylic acid"}, "[3]": {"system": "Mycobacterium tuberculosis", "test": "Compound was evaluated for the synergistic effect in combination with dapsone for the inhibition of Mycobacterium tuberculosis H 37 Ra, using Lowenstein-Jensen medium (solid)"}, "[4]": {"system": "Mycobacterium tuberculosis", "test": "Compound was evaluated for the synergistic effect in combination with capreomycin for the inhibition of Mycobacterium tuberculosis H 37 Ra, using middlebrook 7H9 medium (liquid)"}, "[5]": {"system": "Mycobacterium tuberculosis", "test": "Compound was evaluated for the synergistic effect in combination with benzaldehyde thiosemicarbazone for the inhibition of Mycobacterium tuberculosis H 37 Ra, using Lowenstein-Jensen medium (solid)"}, "[6]": {"system": "Mycobacterium tuberculosis", "test": "Minimum inhibitory concentration (MIC) against Mycobacterium tuberculosis H 37 Ra"}, "[7]": {"system": "Mycobacterium tuberculosis", "test": "Fractional inhibitory concentration (FIC) was determined for the compound in combination of Isoniazid"}, "[8]": {"system": "Mycolicibacterium smegmatis", "test": "Minimum inhibitory concentration (MIC) of compound against Mycobacterium smegmatis ATCC 607"}, "[9]": {"system": "Mycobacterium tuberculosis", "test": "Compound was evaluated for the synergistic effect in combination with rifampicin for the inhibition of Mycobacterium tuberculosis H 37 Ra, using Lowenstein-Jensen medium (solid)"}, "[10]": {"system": "Mycobacterium tuberculosis", "test": "Fractional inhibitory concentration (FIC) was determined for the compound in combination of Benzaldehyde thiosemicarbazone"}, "[11]": {"system": "Mycobacterium tuberculosis", "test": "Fractional inhibitory concentration (FIC) was determined for the compound in combination of Capreomycin"}, "[12]": {"system": "Mycobacterium tuberculosis", "test": "Compound was evaluated for the synergistic effect in combination with rifampicin for the inhibition of Mycobacterium tuberculosis H 37 Ra, using middlebrook 7H9 medium (liquid)"}, "[13]": {"system": "Mycobacterium avium", "test": "Minimum inhibitory concentration (MIC) of compound against Mycobacterium avium SN 304"}, "[14]": {"system": "Mycobacterium tuberculosis", "test": "Compound was evaluated for the synergistic effect in combination with dapsone for the inhibition of Mycobacterium tuberculosis H 37 Ra, using middlebrook 7H9 medium (liquid)"}, "[15]": {"system": "Mycobacterium tuberculosis", "test": "Compound was evaluated for the synergistic effect in combination with isoniazid for the inhibition of Mycobacterium tuberculosis H 37 Ra, using Lowenstein-Jensen medium (solid)"}, "[16]": {"system": "Mycobacterium tuberculosis", "test": "Fractional inhibitory concentration (FIC) was determined for the compound in combination of Streptomycin sulfate"}, "[17]": {"system": "Mycobacterium tuberculosis", "test": "Compound was evaluated for the synergistic effect in combination with streptomycin sulfate for the inhibition of Mycobacterium tuberculosis H 37 Ra, using middlebrook 7H9 medium (liquid)"}, "[18]": {"system": "Mycobacterium tuberculosis", "test": "Compound was evaluated for the synergistic effect in combination with tetracycline hydrochloride for the inhibition of Mycobacterium tuberculosis H 37 Ra, using Lowenstein-Jensen medium (solid)"}, "[19]": {"system": "Mycobacterium tuberculosis", "test": "Compound was evaluated for the synergistic effect in combination with trimethoprim for the inhibition of Mycobacterium tuberculosis H 37 Ra, using middlebrook 7H9 medium (liquid)"}, "[20]": {"system": "Mycobacterium tuberculosis", "test": "Fractional inhibitory concentration (FIC) was determined for the compound in combination of Cycloserine"}, "[21]": {"system": "Mycobacterium tuberculosis", "test": "Compound was evaluated for the synergistic effect in combination with capreomycin for the inhibition of Mycobacterium tuberculosis H 37 Ra, using Lowenstein-Jensen medium (solid)"}, "[22]": {"system": "Mycobacterium tuberculosis", "test": "Compound was evaluated for the synergistic effect in combination with aminosalicylic acid for the inhibition of Mycobacterium tuberculosis H 37 Ra, using Lowenstein-Jensen medium (solid)"}, "[23]": {"system": "Mycobacterium tuberculosis", "test": "Fractional inhibitory concentration (FIC) was determined for the compound in combination of Dapsone"}, "[24]": {"system": "Mycobacterium tuberculosis", "test": "Fractional inhibitory concentration (FIC) was determined for the compound in combination of trimethoprim"}, "[25]": {"system": "Mycobacterium tuberculosis", "test": "Fractional inhibitory concentration (FIC) was determined for the compound in combination of Tetracycline hydrochloride"}, "[26]": {"system": "Mycobacterium tuberculosis", "test": "Compound was evaluated for the synergistic effect in combination with cycloserine for the inhibition of Mycobacterium tuberculosis H 37 Ra, using middlebrook 7H9 medium (liquid)"}, "[27]": {"system": "Mycobacterium tuberculosis", "test": "Compound was evaluated for the synergistic effect in combination with aminosalicylic acid for the inhibition of Mycobacterium tuberculosis H 37 Ra, using middlebrook 7H9 medium (liquid)"}, "[28]": {"system": "Mycobacterium tuberculosis", "test": "Fractional inhibitory concentration (FIC) was determined for the compound in combination of Rifampicin"}, "[29]": {"system": "Mycobacterium marinum", "test": "Minimum inhibitory concentration (MIC) of compound against Mycobacterium marinum SN 1254"}, "[30]": {"system": "Mycobacterium tuberculosis", "test": "Fractional inhibitory concentration (FIC) was determined for the compound in combination of Ethambutol"}, "[31]": {"system": "Mycobacterium tuberculosis", "test": "Compound was evaluated for the synergistic effect in combination with ethionamide for the inhibition of Mycobacterium tuberculosis H 37 Ra, using middlebrook 7H9 medium (liquid)"}, "[32]": {"system": "Mycobacterium tuberculosis", "test": "Compound was evaluated for the synergistic effect in combination with ethionamide for the inhibition of Mycobacterium tuberculosis H 37 Ra, using Lowenstein-Jensen medium (solid)"}, "[33]": {"system": "Mycobacterium tuberculosis", "test": "Minimum inhibitory concentration (MIC) of compound against Mycobacterium tuberculosis H 37 Rv"}, "[34]": {"system": "Mycobacterium tuberculosis", "test": "Compound was evaluated for the synergistic effect in combination with benzaldehyde thiosemicarbazone for the inhibition of Mycobacterium tuberculosis H 37 Ra, using middlebrook 7H9 medium (liquid)"}, "[35]": {"system": "Mycobacterium lufu", "test": "Minimum inhibitory concentration (MIC) of compound against Mycobacterium lufu L 209"}, "[36]": {"system": "Mycobacterium tuberculosis", "test": "Fractional inhibitory concentration (FIC) was determined for the compound in combination of Ethionamide"}, "[37]": {"system": "Mycobacterium tuberculosis", "test": "Compound was evaluated for the synergistic effect in combination with trimethoprim for the inhibition of Mycobacterium tuberculosis H 37 Ra, using Lowenstein-Jensen medium (solid)"}, "[38]": {"system": "Mycobacterium tuberculosis", "test": "Compound was evaluated for the synergistic effect in combination with cycloserine for the inhibition of Mycobacterium tuberculosis H 37 Ra, using Lowenstein-Jensen medium (solid)"}, "[39]": {"system": "Mycobacterium tuberculosis", "test": "Compound was evaluated for the synergistic effect in combination with tetracycline hydrochloride for the inhibition of Mycobacterium tuberculosis H 37 Ra, using middlebrook 7H9 medium (liquid)"}, "[40]": {"system": "Mycobacterium tuberculosis", "test": "Compound was evaluated for the synergistic effect in combination with isoniazid for the inhibition of Mycobacterium tuberculosis H 37 Ra, using middlebrook 7H9 medium (liquid)"}, "[41]": {"system": "Mycobacterium tuberculosis", "test": "Compound was evaluated for the synergistic effect in combination with streptomycin sulfate for the inhibition of Mycobacterium tuberculosis H 37 Ra, using Lowenstein-Jensen medium (solid)"}, "[42]": {"system": "Mycobacterium tuberculosis", "test": "Compound was evaluated for the synergistic effect in combination with ethambutol for the inhibition of Mycobacterium tuberculosis H 37 Ra, using middlebrook 7H9 medium (liquid)"}},
  "data": [
    {"smiles": "CNCc1cc(Cl)cc(Cl)c1.Cl", "values": [
      {"measurement": "MIC", "setting": "[1]", "value": 1, "unit": "µg/mL"},
      {"measurement": "FIC index", "setting": "[2]", "value": 0.0625},
      {"measurement": "MIC", "setting": "[3]", "value": 5.12, "unit": "µg/mL"},
      {"measurement": "MIC", "setting": "[4]", "value": 0.5, "unit": "µg/mL"},
      {"measurement": "MIC", "setting": "[5]", "value": 0.179, "unit": "µg/mL"},
      {"measurement": "MIC", "setting": "[6]", "value": 10.2, "unit": "µg/mL"},
      {"measurement": "FIC index", "setting": "[7]", "value": 1},
      {"measurement": "MIC", "setting": "[8]", "value": 32, "unit": "µg/mL"},
      {"measurement": "MIC", "setting": "[9]", "value": 0.512, "unit": "µg/mL"},
      {"measurement": "FIC index", "setting": "[10]", "value": 0.25},
      {"measurement": "FIC index", "setting": "[11]", "value": 1},
      {"measurement": "MIC", "setting": "[12]", "value": 0.01, "unit": "µg/mL"},
      {"measurement": "MIC", "setting": "[13]", "value": 4, "unit": "µg/mL"},
      {"measurement": "MIC", "setting": "[14]", "value": 32, "unit": "µg/mL"},
      {"measurement": "MIC", "setting": "[15]", "value": 0.03, "unit": "µg/mL"},
      {"measurement": "FIC index", "setting": "[16]", "value": 0.125},
      {"measurement": "MIC", "setting": "[17]", "value": 0.1, "unit": "µg/mL"},
      {"measurement": "MIC", "setting": "[18]", "value": 7.68, "unit": "µg/mL"},
      {"measurement": "MIC", "setting": "[19]", "value": 256, "unit": "µg/mL"},
      {"measurement": "FIC index", "setting": "[20]", "value": 1},
      {"measurement": "MIC", "setting": "[21]", "value": 4.47, "unit": "µg/mL"},
      {"measurement": "MIC", "setting": "[22]", "value": 0.025, "unit": "µg/mL"},
      {"measurement": "FIC index", "setting": "[23]", "value": 0.031},
      {"measurement": "FIC index", "setting": "[24]", "value": 0.5},
      {"measurement": "FIC index", "setting": "[25]", "value": 1},
      {"measurement": "MIC", "setting": "[26]", "value": 32, "unit": "µg/mL"},
      {"measurement": "MIC", "setting": "[27]", "value": 0.05, "unit": "µg/mL"},
      {"measurement": "FIC index", "setting": "[28]", "value": 0.5},
      {"measurement": "MIC", "setting": "[29]", "value": 4, "unit": "µg/mL"},
      {"measurement": "FIC index", "setting": "[30]", "value": 1},
      {"measurement": "MIC", "setting": "[31]", "value": 1, "unit": "µg/mL"},
      {"measurement": "MIC", "setting": "[32]", "value": 6.4, "unit": "µg/mL"},
      {"measurement": "MIC", "setting": "[33]", "value": 3, "unit": "µg/mL"},
      {"measurement": "MIC", "setting": "[34]", "value": 0.1, "unit": "µg/mL"},
      {"measurement": "MIC", "setting": "[35]", "value": 4, "unit": "µg/mL"},
      {"measurement": "FIC index", "setting": "[36]", "value": 1},
      {"measurement": "MIC", "setting": "[37]", "value": 179, "unit": "µg/mL"},
      {"measurement": "MIC", "setting": "[38]", "value": 25.6, "unit": "µg/mL"},
      {"measurement": "MIC", "setting": "[39]", "value": 2, "unit": "µg/mL"},
      {"measurement": "MIC", "setting": "[40]", "value": 0.1, "unit": "µg/mL"},
      {"measurement": "MIC", "setting": "[41]", "value": 7.68, "unit": "µg/mL"},
      {"measurement": "MIC", "setting": "[42]", "value": 5, "unit": "µg/mL"}
    ]}
  ]
}
